According to publication PMC5716070 (International Journal of Neuropsychopharmacology, 2017):
≈ marks a conversion by molar mass, not a printed value. Where “and” joins values, the source holds several entries; their conditions need not be identical. Identical values can stand only once. Like-named read-outs stand apart in the source and are kept apart here.

What was measured:
SERT = conditions: cited from earlier work
clinical = conditions: human, plasma, po, 60 mg
NET = conditions: cited from earlier work
[1] = clinical dose, ref Nogami et al., 2013

CNCC[C@H](Oc1cccc2ccccc12)c1cccs1 [duloxetine]
SERT occupancy (SERT; 20 mg, ref Takano et al., 2006): 71.3% | SERT occupancy (SERT; 60 mg, ref Takano et al., 2006): 81.8% | EC50 for SERT occupancy (SERT; ref Abanades et al., 2011): 0.00262 ± 0.00093 µg/mL | EC50 for SERT occupancy (SERT; ref Takano et al., 2006): 0.0037 µg/mL | SERT occupancy (SERT; single dose 40 mg, ref Takano et al., 2006): 80.6% and ~80% | concentration at 6 h (clinical): 80.8 ng/mL

CNCCC=C1c2ccccc2CCc2ccccc21 [nortriptyline]
EC50 (plasma drug concentration inducing 50% NET occupancy) (NET; chronically administered 75–200 mg, patients with MDD, ref Takano et al., 2014): 0.0798 µg/mL (≈ 0.303 µM) | EC50 (plasma drug concentration inducing 50% NET occupancy) (NET; single low dose (10–75 mg), healthy human volunteers, ref Sekine et al., 2010): 0.0598 µg/mL (≈ 0.227 µM)

CCN(CC)C(=O)C1(c2ccccc2)CC1CN (stereo not shown) [milnacipran]
SERT occupancy (SERT; [1]): low occupancy | NET occupancy (NET; [1]): low occupancy
